Source: patent publication US11406590B2, “Essential oil emulsion nostril treatment composition” (King Abdulaziz University, priority 2020, dated 2022)

Test system: Salmonella enterica subsp. Enterica serovar typhimurium (ATCC 29629, TA 1535)
Assay: Ames test of liposomal preparation
Format: cell-based
Conditions: 20 and 200 nmol
Procedure: To evaluate the safety of the liposomal preparation described in Example 1, the Ames test is performed according to the procedure described by, and incorporated by reference to, Ames et al, Carcinogens are mutagens: their detection and classification. Environ Health Perspect. 1973 December; 6:115-8; Mortelmans and Zeiger, The Ames Salmonella/microsome mutagenicity assay. Mutat Res. 2000 Nov. 20; 455(1-2):29-60.
Briefly, the test organism Salmonella enterica subsp. Enterica serovar typhimurium (ATCC® 29629-Strain Designations: TA 1535), an auxotrophic mutant, is provided by ATCC, Manassas, USA. This auxotrophic isolate has a mutation in its DNA which prevents it from producing histidine and thus requires histidine for its growth.
Potentially mutagenic substances are identified by contacting them with this auxotrophic mutant and measuring the frequency of mutations that restore the ability of this auxotroph to grown a medium not containing histidine. […]
A degree of mutagenicity of the liposome preparation is determined by comparison of the number of colonies appearing on the negative and positive controls and the number of colonies on the solid medium containing different concentrations of the liposome preparation containing the essential oil-in-water emulsion of Example 1.

## CC[n+]1c(-c2ccccc2)c2cc(N)ccc2c2ccc(N)cc21 [ethidium bromide]
  Colony counts on positive control plates: significant increase
